According to ChEMBL document CHEMBL5728637, “Pyrazolopyrimidine derivatives, preparation method thereof, and pharmaceutical composition for use in preventing or treating cancer, autoimmune disease and brain disease containing the same as an active ingredient” (2021):

The molecules below were run against Tyrosine-protein kinase BTK (Homo sapiens, UniProt Q06187) (assay: Inhibitory Assay: BTK enzyme evaluation with each compound of examples of the invention was performed by using BTK enzyme inhibition diagnosis kit (Cisbio, Codolet, France). ATP (adenosine triphosphate), BTK, peptide (biotin-Aca-[…]-NH2) and each compound of examples of the invention were mixed, followed by reaction for 30 minutes. Then, EDTA (ethylenediaminetetraacetic acid) was added thereto in order to terminate the reaction. At this time, the EDTA solution contained curopium-containing antibody (antiphosphoresidue antibody) and straptavidin-XL665 (SA-XL665, Cisbio). After incubation for 1 hour, fluorescence was measured. The emission values of 665 nm and 620 nm excited at 337 nm were measured with Envision reader.).
Sequence of Tyrosine-protein kinase BTK (Q06187 whole entry): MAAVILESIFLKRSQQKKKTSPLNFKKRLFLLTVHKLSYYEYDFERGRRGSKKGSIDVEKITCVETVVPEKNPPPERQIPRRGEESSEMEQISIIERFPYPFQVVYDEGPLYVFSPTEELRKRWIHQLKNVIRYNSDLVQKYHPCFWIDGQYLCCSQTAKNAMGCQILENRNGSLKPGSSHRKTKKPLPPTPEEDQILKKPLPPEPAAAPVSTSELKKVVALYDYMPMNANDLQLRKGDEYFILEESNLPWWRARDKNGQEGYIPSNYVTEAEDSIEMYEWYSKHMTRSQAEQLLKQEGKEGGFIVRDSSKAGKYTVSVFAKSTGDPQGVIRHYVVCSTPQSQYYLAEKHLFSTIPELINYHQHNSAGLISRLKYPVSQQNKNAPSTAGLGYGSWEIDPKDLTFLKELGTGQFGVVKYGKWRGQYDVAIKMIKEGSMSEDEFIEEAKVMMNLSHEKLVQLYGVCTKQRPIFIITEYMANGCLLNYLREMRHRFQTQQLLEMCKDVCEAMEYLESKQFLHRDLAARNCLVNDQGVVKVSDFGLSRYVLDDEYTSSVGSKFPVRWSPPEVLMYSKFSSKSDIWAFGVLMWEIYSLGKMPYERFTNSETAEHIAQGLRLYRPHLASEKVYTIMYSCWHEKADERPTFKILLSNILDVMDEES
Work on `Cn1nc(Nc2c(Cl)cccc2Cl)c2cnc(Nc3ccc4c(c3)CCNC4)nc21` yielded an IC50 of 670 pM.
Work on `Cc1ccc(NC(=O)Nc2cccc(C(F)(F)F)c2)cc1Nc1nn(C)c2nc(Nc3ccc4c(c3)CNCC4)ncc12` yielded an IC50 of 26700 pM.
`Cc1cccc(C)c1Nc1nn(C)c2nc(Nc3ccc4c(c3)CNCC4)ncc12` was tested, and the IC50 was 600 pM.
`Cc1cccc(C)c1Nc1n[nH]c2nc(Nc3ccc4c(c3)CNCC4)ncc12` was tested, and the IC50 was 300 pM.
